Ki and K beta data for four compounds are collected here from ChEMBL document CHEMBL1122691, “Development of an affinity ligand for purification of alpha 2-adrenoceptors from human platelet membranes” (J Med Chem, 1984).

Assay [1] concerns the target T1, Adrenergic receptor alpha-2 (Homo sapiens, UniProt P08913+P18825+P18089).
T1 sequence (P08913 whole entry): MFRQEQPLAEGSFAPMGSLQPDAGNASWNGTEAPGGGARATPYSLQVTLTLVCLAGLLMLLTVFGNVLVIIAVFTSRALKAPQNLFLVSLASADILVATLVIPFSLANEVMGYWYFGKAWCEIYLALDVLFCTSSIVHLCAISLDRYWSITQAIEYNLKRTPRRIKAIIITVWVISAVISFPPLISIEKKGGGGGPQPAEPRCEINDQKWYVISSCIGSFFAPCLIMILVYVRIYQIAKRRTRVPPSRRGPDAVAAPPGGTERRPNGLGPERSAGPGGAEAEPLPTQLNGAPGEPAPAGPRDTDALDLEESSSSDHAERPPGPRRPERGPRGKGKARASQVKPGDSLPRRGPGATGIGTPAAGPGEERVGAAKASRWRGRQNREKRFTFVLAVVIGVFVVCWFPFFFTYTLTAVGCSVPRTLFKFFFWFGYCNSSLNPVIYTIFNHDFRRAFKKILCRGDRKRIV
T1 sequence (P18825 whole entry): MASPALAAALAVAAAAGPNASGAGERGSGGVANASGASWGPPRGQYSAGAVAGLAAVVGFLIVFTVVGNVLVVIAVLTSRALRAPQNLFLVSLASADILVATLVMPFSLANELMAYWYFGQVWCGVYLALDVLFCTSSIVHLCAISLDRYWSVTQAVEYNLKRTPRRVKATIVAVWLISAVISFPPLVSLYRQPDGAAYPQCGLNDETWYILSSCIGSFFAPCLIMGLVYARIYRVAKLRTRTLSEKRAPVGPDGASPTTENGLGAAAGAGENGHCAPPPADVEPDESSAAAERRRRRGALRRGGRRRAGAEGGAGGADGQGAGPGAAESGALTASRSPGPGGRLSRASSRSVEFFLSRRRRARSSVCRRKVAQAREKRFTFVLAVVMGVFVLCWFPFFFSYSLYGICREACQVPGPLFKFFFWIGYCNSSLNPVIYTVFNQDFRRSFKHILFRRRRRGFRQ
T1 sequence (P18089 whole entry): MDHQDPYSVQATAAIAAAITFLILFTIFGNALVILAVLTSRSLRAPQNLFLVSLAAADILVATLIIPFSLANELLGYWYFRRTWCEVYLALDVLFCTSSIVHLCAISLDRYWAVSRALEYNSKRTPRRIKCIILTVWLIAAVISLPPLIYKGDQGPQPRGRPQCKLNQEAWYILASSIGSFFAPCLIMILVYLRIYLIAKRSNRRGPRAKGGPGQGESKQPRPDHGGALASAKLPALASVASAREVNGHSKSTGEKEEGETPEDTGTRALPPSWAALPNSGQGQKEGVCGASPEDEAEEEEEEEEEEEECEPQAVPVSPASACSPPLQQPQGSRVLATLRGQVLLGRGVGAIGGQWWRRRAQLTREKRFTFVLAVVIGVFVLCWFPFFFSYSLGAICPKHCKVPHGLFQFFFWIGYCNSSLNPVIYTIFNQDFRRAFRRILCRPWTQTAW
Format: cell membranes.

Assay [2] relates to Adrenergic receptor alpha-2 (Cavia porcellus). The note with it: Cardiac atrium.
Assay [3] has as its target T1, Adrenergic receptor alpha-2. Put plainly: Binding affinity against alpha-2-adrenergic receptor using 10 nM [3H]yohimbine in preparations in human platelet membranes from three separate experiments using 10 inhibitor concentrations. Format: cell membranes.
Assay [4] has the same target. Put plainly: Binding affinity against alpha-2-adrenergic receptor using 10 nM [3H]yohimbine in human platelet membranes from four to five separate experiments using 12 inhibitor concentrations. The assay is classed as cell membranes.

In assay [1], `C=CCOc1cccc2c1CCN(C)CC2` gave a Ki of 338 nM. The same compound returned a K beta in assay [2] of 206 nM. As to `C=CCOc1ccc2c(c1)CCNCC2`, the Ki in assay [3] is given as 232 nM. As for `C=CCN1CCc2cccc(Cl)c2CC1`, in assay [1], the Ki came to 6.1 nM. In assay [2], this compound gave a K beta of 60 nM. For `C=CCOc1ccc(Cl)c2c1CCN(C)CC2`, the K beta in assay [2] turned out to be 150 nM. Moreover, in assay [4], the Ki came to 48 nM.
